Experimental data taken from patent publication US20250109140A1, “5-[5-(PIPERIDIN-4-YL)THIENO[3,2-C]PYRAZOL-2-YL]INDAZOLE DERIVATIVES AND RELATED COMPOUNDS AS MODULATORS FOR SPLICING NUCLEIC ACIDS AND FOR THE TREATMENT OF PROLIFERATIVE DISEASES” (REMIX THERAPUTICS INC., priority 2022, published 2025).
Like-named read-outs stand apart in the source and are kept apart here.

Assays:
HiBiT-tagged HTT protein = assay: HiBiT protein abundance assay, HTT (K562 HiBiT knock-in cells); type: cell-based, human; conditions: 24 hours treatment
Protocol: (§1) Compounds described herein were used to screen for effects on quantitative protein abundance using a HiBit assay system (Promega). Quantitative protein abundance was determined by measuring the protein levels of HiBit-tagged protein targets expressed in cell culture via luminescence using the Nano-Glo HiBiT Lytic Detection System, which uses a split complementation assay format to reconstitute NanoBiT enzyme to generate a luminescent signal. A protein abundance assay was developed such that endogenous protein targets could be modified with the HiBiT peptide tag and their abundance could be assessed after compound treatment. Briefly, K562 cell lines containing a HiBiT-modification were treated with various compounds described herein (e.g., compounds of Formulas (I), or (II)). After treatment for 24 hours, the protein abundance of a specific target was determined by measuring luminescence.
(§2) Cells were maintained in IMDM with 10% FBS. Before the assay, cells were diluted with […] growth media (IMDM+[…] media) and were seeded in a 384-well plate at a density of 10000 cells/well (for each cell line listed in Table 6). Each compound was prepared as a 10-point 3-fold serial dilution in DMSO with the top dose at a final concentration of […] in the well. Unmodified K562 cells were added at the previously specified density with DMSO to serve as an assay baseline and positive control (PC) and DMSO only with the respective modified cell lines was added to the negative control (NC) columns. Final DMSO concentration was kept at or below 0.25%. Treated cell plates were placed in an incubator at 37° C. with […] for 24 hours. After 24 hours, 25 μL of Complete HiflitLytic reagent was added to each well at room temperature (e.g. one plate requiring 10 mL Lytic Buffer, 100 μL LgBiT Protein, 200 μL Lytic Substrate), shaken for 5 minutes at 600 RPM, then left to sit for 10 minutes for signal to stabilize before reading on a Spark Cyto plate reader (Tecan) with a 500 ms measurement time.
(§3) To determine compound effects on protein abundance of each target in Table 6, the percent response for each respective cell line was calculated at each compound concentration as follows:
(§4) For the normalized response at each concentration, a four-parameter logistical regression was fit to the data and the response was interpolated at the 50% value to determine a concentration for protein abundance at 50% (IC50) the untreated control.

HiBiT-tagged MYB protein = assay: HiBiT protein abundance assay, MYB (K562 HiBiT knock-in cells); type: cell-based, human; conditions: 24 hours treatment
Protocol: as §1, §2, §3, §4

Target C mRNA = assay: Splicing RT-qPCR gene panel, Target C canonical junction (CJ) mRNA; type: cell-based; conditions: Homo sapiens; Table 8; larger gene panel, decrease in CJ mRNA levels
How it was run: (§5)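 A673 or K562 cells were exposed for 24 h at 37 °C to an 11-point 3-fold dilution series (top 10 uM final, DMSO ≤0.25%). Lysates were analysed by one-step RT-qPCR for canonical (CJ) and alternative (AJ) junctions. Values were normalized to GAPDH, GUSB or PPIA and to DMSO (ΔΔCt), then converted to percentage response.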

Target C = assay: HiBiT protein abundance assay, Target C (K562 HiBiT knock-in cells); type: cell-based, human; conditions: 24 hours treatment
Protocol: • Promega Nano-Glo HiBiT Lytic Detection System (cat #N3030) • Corning 384-well TC-treated microplates (cat #3570) • Synthego Engineered Cells Knock-In Clones
as §2, §3, §4

MYB mRNA = assay: Splicing RT-qPCR assay, MYB canonical (CJ) and alternative (AJ) junction mRNA; type: cell-based; conditions: Homo sapiens; for EC50: AC50 = 50% response in AJ mRNA increase
How it was run: as §5

SMN2 mRNA = assay: Splicing RT-qPCR gene panel, SMN2 canonical junction (CJ) mRNA; type: cell-based; conditions: Homo sapiens; Table 8; larger gene panel, decrease in CJ mRNA levels
How it was run: as §5

HTT mRNA = assay: Splicing RT-qPCR assay, HTT canonical (CJ) and alternative (AJ) junction mRNA; type: cell-based; conditions: Homo sapiens; for EC50: AC50 = 50% response in AJ mRNA increase
How it was run: as §5

[1] = test system: K562 (human chronic myelogenous leukemia) cells; assay: Cell viability, Cell Titer Glo 2.0 assay, K562 cells; type: cell-based; conditions: 72 hours
Protocol: Compounds described herein were screened for toxicity in K562 (human chronic myelogenous leukemia) and SH-SY5Y (human neuroblastoma) cells using a Cell Titer Glo 2.0 assay.
Cells were plated at 500 cells/well (K562 cells) in 45 μL of IMDM supplemented with 10% FBS in a 384-well opaque plate. Wells containing only medium were used as a blank control. Test compounds (e.g., compounds of Formula (I), (III), (IV), (V), or (VI)) were first serially diluted in DMSO then diluted 1:100 with IMDM+10% FBS. The final concentration of DMSO was 0.1% in each well. The cells were incubated for 72 hours at 37° C. and 5% CO2 before assaying with Cell Titer Glo 2.0 reagent.

[2] = Table 7, RT-qPCR, A673 or K562 cells, 24 hours treatment
[3] = Table 7, IC50 = 50% response in CJ mRNA decrease, RT-qPCR, A673 or K562 cells, 24 hours treatment, read-out: MYB CJ
[4] = Table 8, larger gene panel, decrease in CJ mRNA levels, read-out: MYB CJ IC50
[5] = Table 7, IC50 = 50% response in CJ mRNA decrease, RT-qPCR, A673 or K562 cells, 24 hours treatment, read-out: HTT CJ
[6] = Table 8, larger gene panel, decrease in CJ mRNA levels, read-out: HTT CJ IC50

Structure (SMILES)	IC50 (HiBiT-tagged HTT protein) [nM]	IC50 (HiBiT-tagged MYB protein) [nM]	IC50 (Target C mRNA) [nM]	IC50 (Target C) [nM]	EC50 (MYB mRNA; [2]) [nM]	IC50 (MYB mRNA; [3]) [nM]	IC50 (MYB mRNA; [4]) [nM]	IC50 (SMN2 mRNA) [nM]	EC50 (HTT mRNA; [2]) [nM]	IC50 (HTT mRNA; [5]) [nM]	IC50 (HTT mRNA; [6]) [nM]	IC50 [1] [nM]
Cc1cn2nc(-c3cc4cn([C@H]5CCNC[C@@H]5F)nc4s3)cc(C)c2n1 (mixture of isomers) [Compound 212, 5-(2,8-dimethylimidazo[1,2-b]pyridazin-6-yl)-2-((1:1 mixture of 3S,4S and 3R,4R)-3-fluoropiperidin-4-yl)-2H-thieno[2,3-c]pyrazole]	1000 to 10000	> 10000	> 10000	> 10000	> 10000	1000 to 10000	> 10000	100 to 1000	1000 to 10000	1000 to 10000	1000 to 10000	1000 to 10000
Cc1cn2nc(-n3cc4sc(C5CCNCC5)cc4n3)cc(C)c2n1 [Compound 101, 4-(2-[2,8-dimethylimidazo[1,2-b]pyridazin-6-yl]thieno[3,2-c]pyrazol-5-yl)piperidine]	< 100	100 to 1000	< 100	< 100	100 to 1000	100 to 1000	100 to 1000	< 100	100 to 1000	< 100	100 to 1000	100 to 1000
Cc1cn2nc(-n3cc4cc(C5CCNCC5)sc4n3)cc(C)c2n1 [Compound 110, 4-(2-[2,8-dimethylimidazo[1,2-b]pyridazin-6-yl]thieno[2,3-c]pyrazol-5-yl) piperidine]	1000 to 10000	1000 to 10000		1000 to 10000	100 to 1000	1000 to 10000	100 to 1000	< 100	100 to 1000	100 to 1000	100 to 1000	1000 to 10000
CN(c1cc2nn(-c3ccc(-c4cn[nH]c4)cc3O)cc2s1)[C@@H]1C[C@H]2CC[C@@H](C1)N2 [Compound 148, 2-[5-[(1R,3R,5S)-8-azabicyclo[3.2.1]octan-3-yl(methyl)amino]thieno[3,2-c]pyrazol-2-yl]-5-(1H-pyrazol-4-yl)phenol]	1000 to 10000	1000 to 10000	> 10000	1000 to 10000	1000 to 10000	> 10000	1000 to 10000	1000 to 10000	1000 to 10000	1000 to 10000	1000 to 10000	1000 to 10000
Cc1cn2cc(-n3cc4cc(C5CCNCC5)sc4n3)cc(C)c2n1 [Compound 155]	< 100	100 to 1000	1000 to 10000	100 to 1000	1000 to 10000	1000 to 10000	1000 to 10000	< 100	100 to 1000	100 to 1000	100 to 1000	100 to 1000
Cc1cn2cc(-n3cc4cc(C5CCNCC5)sc4n3)cc(F)c2n1 [Compound 156]	< 100	100 to 1000	100 to 1000	< 100	1000 to 10000	100 to 1000	1000 to 10000	< 100	100 to 1000	< 100	100 to 1000	100 to 1000
Cc1nc2c(F)cc(-n3cc4cc(C5CCNCC5)sc4n3)cc2o1 [Compound 157]	< 100	100 to 1000	100 to 1000	< 100	100 to 1000	1000 to 10000	100 to 1000	< 100	100 to 1000	100 to 1000	100 to 1000	100 to 1000
Cc1cn2cc(-n3cc4sc(C5CCNCC5)cc4n3)cc(C)c2n1 [Compound 173]			> 10000		> 10000	> 10000	> 10000	1000 to 10000	1000 to 10000	1000 to 10000	1000 to 10000	1000 to 10000

Further lines, results first:

IC50 (HiBiT-tagged HTT protein) [nM]	IC50 (HiBiT-tagged MYB protein) [nM]	IC50 (Target C mRNA) [nM]	IC50 (Target C) [nM]	EC50 (MYB mRNA; [2]) [nM]	IC50 (MYB mRNA; [3]) [nM]	IC50 (MYB mRNA; [4]) [nM]	IC50 (SMN2 mRNA) [nM]	EC50 (HTT mRNA; [2]) [nM]	IC50 (HTT mRNA; [5]) [nM]	IC50 (HTT mRNA; [6]) [nM]	IC50 [1] [nM]	Structure (SMILES)
< 100	100 to 1000	100 to 1000	100 to 1000	100 to 1000	100 to 1000	100 to 1000	< 100	100 to 1000	< 100	100 to 1000	100 to 1000	Cn1cc2cc(-n3cc4cc(C5CCNCC5)sc4n3)cc(F)c2n1 [Compound 104, 7-fluoro-2-methyl-5-[5-(piperidin-4-yl)thieno[2,3-c]pyrazol-2-yl]indazole]
100 to 1000	1000 to 10000	1000 to 10000	1000 to 10000	1000 to 10000	1000 to 10000	1000 to 10000	100 to 1000	100 to 1000	100 to 1000	100 to 1000	1000 to 10000	Cn1cc2cc(-n3cc4sc(C5CCNCC5)cc4n3)cc(F)c2n1 [Compound 105, 7-fluoro-2-methyl-5-[5-(piperidin-4-yl)thieno[3,2-c]pyrazol-2-yl]indazole]
< 100	100 to 1000	< 100	< 100	100 to 1000	100 to 1000	100 to 1000	< 100	100 to 1000	< 100	100 to 1000		Cn1cc2cc(-c3cc4nn(C5CCNCC5)cc4s3)cc(F)c2n1 [Compound 121, 7-fluoro-2-methyl-5-[2-(piperidin-4-yl)thieno[3,2-c]pyrazol-5-yl]indazole]
< 100	< 100	< 100	< 100	100 to 1000	< 100	100 to 1000	< 100	< 100	< 100	< 100	< 100	Cn1cc2cc(-c3cc4cn(C5CCNCC5)nc4s3)cc(F)c2n1 [Compound 122, 7-fluoro-2-methyl-5-[2-(piperidin-4-yl)thieno[2,3-c]pyrazol-5-yl]indazole]
< 100	100 to 1000	100 to 1000	100 to 1000	100 to 1000	100 to 1000	100 to 1000	< 100	< 100	< 100	< 100	100 to 1000	CCN1CCC(n2cc3cc(-c4cc(F)c5nn(C)cc5c4)sc3n2)CC1 [Compound 149, 5-[2-(1-ethylpiperidin-4-yl)thieno[2,3-c]pyrazol-5-yl]-7-fluoro-2-methylindazole]
< 100	100 to 1000	100 to 1000	100 to 1000	100 to 1000	100 to 1000	100 to 1000	< 100	100 to 1000	100 to 1000	100 to 1000	100 to 1000	CN1CCC(n2cc3cc(-c4cc(F)c5nn(C)cc5c4)sc3n2)CC1 [Compound 150, 7-fluoro-2-methyl-5-[2-(1-methylpiperidin-4-yl)thieno[2,3-c]pyrazol-5-yl]indazole]
